What follows are molecules tested against CRBN truncate (318-426) (Homo sapiens (Human), UniProt Q96SW2) (assay: Measurement of molecular interactions using surface plasmon resonance (SPR), Biacore T200). Conditions: 25° C., immobilized CRBN truncate, upper limit of measurement 200 μM.
Format: binding
Outline: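 Compound injections used 60 s association and 120 s dissociation in HEPES pH 7.5 buffer (150 mM NaCl, 1 mM TCEP, 0.005% Tween 20, 2% DMSO). The ligand was CRBN truncate 318-426 bearing a C-terminal Avi-tag, immobilised via streptavidin on an SA sensor chip.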

Chain of CRBN truncate (318-426) (Q96SW2 318-426): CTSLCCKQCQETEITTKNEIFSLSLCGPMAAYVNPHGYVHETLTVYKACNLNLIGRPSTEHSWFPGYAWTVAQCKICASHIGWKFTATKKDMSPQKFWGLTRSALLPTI

Kd [µM]	SMILES
< 50	COc1ccc2sc(N3CC4(CC(=O)N(C5CCC(=O)NC5=O)C4=O)C3)nc2c1 (stereo not drawn) [Example 239, 6-(2,6-Dioxopiperidin-3-yl)-2-(5-methoxy-1,3-benzothiazol-2-yl)-2,6-diazaspiro[3.4]octane-5,7-dione]
≥ 100	CC(C)(C)OC(=O)NCCCCCCCc1cn(C2CCCC(=O)NC2=O)nn1 (stereo not drawn) [Example 147, tert-Butyl N-[7-[1-(2,7-dioxoazepan-3-yl)triazol-4-yl]heptyl]carbamate]
50 to 100	CC1(CN2C(=O)c3ccccc3C2=O)CCCC(=O)NC1=O (stereo not drawn) [Example 31, 2-[(3-Methyl-2,7-dioxoazepan-3-yl)methyl]isoindole-1,3-dione]
< 50	Cc1sc2c(c1C)C(c1ccc(Cl)cc1)=N[C@@H](CC(=O)NCCCCCCCCNC(=O)COc1ccc(C#N)c(N3CCC4(CCCC(=O)NC4=O)C3)c1)c1nnc(C)n1-2 (stereo partly drawn) [Example 339, 2-[(9S)-7-(4-chlorophenyl)-4,5,13-trimethyl-3-thia-1,8,11,12-tetraazatricyclo[8.3.0.02,6]trideca-2(6),4,7,10,12-pentaen-9-yl]-N-[8-[[2-[4-cyano-3-(6,8-dioxo-2,7-diazaspiro[4.6]undecan-2-yl)phenoxy]acetyl]amino]octyl]acetamide]
≥ 100	CC(C)(C)OC(=O)N(CC1CCCC(=O)NC1=O)c1ccc(F)cc1 (stereo not drawn) [Example 24, tert-Butyl N-[(2,7-dioxoazepan-3-yl)methyl]-N-(4-fluorophenyl) carbamate]
< 50	Cc1sc2c(c1C)C(c1ccc(Cl)cc1)=N[C@@H](CC(=O)NCCCCCCCCNC(=O)CCc1cccc3c1n(C)c(=O)n3C1CCCC(=O)NC1=O)c1nnc(C)n1-2 (stereo partly drawn) [Example 333, N-[8-[[2-[(9S)-7-(4-chlorophenyl)-4,5,13-trimethyl-3-thia-1,8,11,12-tetraazatricyclo[8.3.0.02,6]trideca-2(6),4,7,10,12-pentaen-9-yl]acetyl]amino]octyl]-3-[1-(2,7-dioxoazepan-3-yl)-3-methyl-2-oxobenzimidazol-4-yl]propanamide]
≥ 100	O=C1CCC(N2C(=O)CC3(CN(C(=O)CNC(=O)c4ccccc4)C3)C2=O)C(=O)N1 (stereo not drawn) [Example 55, N-[2-[6-(2,6-Dioxopiperidin-3-yl)-5,7-dioxo-2,6-diazaspiro[3.4]octan-2-yl]-2-oxoethyl]benzamide]
< 50	Cc1sc2c(c1C)C(c1ccc(Cl)cc1)=N[C@@H](CC(=O)NCCCCCCn1ccc3c(C(=O)N4CCC5(CCCC(=O)NC5=O)CC4)cccc31)c1nnc(C)n1-2 [Example 326, 2-[(9S)-7-(4-chlorophenyl)-4,5,13-trimethyl-3-thia-1,8,11,12-tetraazatricyclo[8.3.0.02,6]trideca-2(6),4,7,10,12-pentaen-9-yl]-N-[6-[4-(7,9-dioxo-3,8-diazaspiro[5.6]undecane-3-carbonyl)indol-1-yl]hexyl]acetamide]
< 50	Cc1sc2c(c1C)C(c1ccc(Cl)cc1)=N[C@@H](CC(=O)NCCCCCCCCCCC(=O)N1CCC(c3ccc(OC4CCCC(=O)NC4=O)cc3)CC1)c1nnc(C)n1-2 (stereo partly drawn) [Example 356]
≥ 100	Cn1ncc2c(N3CCC4(CCCC(=O)NC4=O)C3)ncnc21 (stereo not drawn) [Example 39, 2-(1-methylpyrazolo[3,4-d]pyrimidin-4-yl)-2,7-diazaspiro[4.6]undecane-6,8-dione]
≥ 100	CC(C)(C)OC(=O)NCCc1ccc(S(=O)(=O)N2CC3(CC(=O)N(C4CCC(=O)NC4=O)C3=O)C2)cc1 (stereo not drawn) [Example 278, tert-Butyl N-[2-[4-[[6-(2,6-dioxopiperidin-3-yl)-5,7-dioxo-2,6-diazaspiro [3.4]octan-2-yl]sulfonyl]phenyl]ethyl]carbamate]
< 50	Cc1sc2c(c1C)C(c1ccc(Cl)cc1)=N[C@@H](CC(=O)NCCCCCCCCCCC(=O)N1CCC(c3ccc(C45CCC(O4)C(=O)NC5=O)cc3)CC1)c1nnc(C)n1-2 (stereo in doubt) [Example 358, 2-[(9S)-7-(4-chlorophenyl)-4,5,13-trimethyl-3-thia-1,8,11,12-tetraazatricyclo[8.3.0.02,6]trideca-2(6),4,7,10,12-pentaen-9-yl]-N-[11-[4-[4-[(1R*,5R*)-2,4-dioxo-8-oxa-3-azabicyclo[3.2.1]octan-1-yl]phenyl]-1-piperidyl]-11-oxo-undecyl]acetamide]
< 50	COc1ccc2nc(N3CC4(CC(=O)N(C5CCC(=O)NC5=O)C4=O)C3)sc2c1 (stereo not drawn) [Example 238, 6-(2,6-Dioxopiperidin-3-yl)-2-(6-methoxy-1,3-benzothiazol-2-yl)-2,6-diazaspiro[3.4]octane-5,7-dione]
< 50	Cc1sc2c(c1C)C(c1ccc(Cl)cc1)=N[C@@H](CC(=O)NCCCCCCCCNC(=O)CCc1nn(C3CCCC(=O)NC3=O)c3ccccc13)c1nnc(C)n1-2 (stereo partly drawn) [Example 334, N-[8-[[2-[(9S)-7-(4-chlorophenyl)-4,5,13-trimethyl-3-thia-1,8,11,12-tetraazatricyclo[8.3.0.02,6]trideca-2(6),4,7,10,12-pentaen-9-yl]acetyl]amino]octyl]-3-[1-(2,7-dioxoazepan-3-yl)indazol-3-yl]propanamide]
< 50	NC(=O)c1nn(-c2ccc(C(=O)NCCOCCOCCNC(=O)CN3CCC4(CCCC(=O)NC4=O)CC3=O)cc2)cc1NC(=O)c1coc(-c2ccnc(NCC3CC3)c2)n1 (stereo not drawn) [Example 144, N-[3-Carbamoyl-1-[4-[2-[2-[2-[[2-(4,7,9-trioxo-3,8-diazaspiro [5.6]dodecan-3-yl)acetyl]amino]ethoxy]ethoxy]ethylcarbamoyl]phenyl]pyrazol-4-yl]-2-[2-(cyclopropylmethylamino)-4-pyridyl]oxazole-4-carboxamide]
≥ 100	CCOC(=O)c1cc(N2CCC3(CCCC(=O)NC3=O)C2)ncc1C(F)(F)F (stereo not drawn) [Example 40, Ethyl 2-(6,8-dioxo-2,7-diazaspiro[4.6]undecan-2-yl)-5-(trifluoromethyl)pyridine-4-carboxylate]
≥ 100	Cn1c(=O)n(C2CCCC(=O)NC2=O)c2ccc(/C=C/C(=O)OC(C)(C)C)cc21 (stereo not drawn) [Example 140, tert-Butyl (E)-3-[1-(2,7-oxazepan-3-yl)-3-methyl-2-oxo-benzimidazol-5-yl]-2-propenoate]
< 50	Cc1sc2c(c1C)C(c1ccc(Cl)cc1)=N[C@@H](CC(=O)NCCCCCCCCNC(=O)/C=C/c1ccc([C@H]3C[C@H](N4C=CCC(=O)NC4=O)C(=O)N3C)cc1)c1nnc(C)n1-2 (relative stereo) [Example 349, (E)-N-[8-[[2-[(9S)-7-(4-chlorophenyl)-4,5,13-trimethyl-3-thia-1,8,11,12-tetrazatricyclo[8.3.0.02,6]trideca-2(6),4,7,10,12-pentaen-9-yl]acetyl]amino]octyl]-3-[4-[(2R*,4S*)-4-(2,4-dioxo-5H-1,3-diazepin-1-yl)-1-methyl-5-oxopyrrolidin-2-yl]phenyl]prop-2-enamide]
≥ 100	Nc1ccc(N2CCC(N3CCCC(=O)NC3=O)C2=O)cc1 (stereo not drawn) [Example 297, 1-[1-(4-Aminophenyl)-2-oxopyrrolidin-3-yl]-1,3-diazepane-2,4-dione]
≥ 100	O=C1CCCC(CNc2ccc(F)cc2)C(=O)N1 (stereo not drawn) [Example 25, 3-[(4-Fluoroanilino)methyl]azepane-2,7-dione]
≥ 100	O=C1CCCC(n2ncc(Cl)cc2=O)C(=O)N1 (stereo not drawn) [Example 248, 3-(4-Chloro-6-oxopyridazin-1-yl)azepane-2,7-dione]
≥ 100	CC(C)(C)OC(=O)c1ccc(N2CC[C@@]3(CCCC(=O)NC3=O)CC2=O)cc1 [Example 224, tert-Butyl 4-(4,7,9-trioxo-3,8-diazaspiro [5.6]dodecan-3-yl) benzoate]
< 50	Cc1sc2c(c1C)C(c1ccc(Cl)cc1)=N[C@@H](CC(=O)NCCCCCCCCNC(=O)CN1CC3(CC(=O)N(C4CCC(=O)NC4=O)C3=O)C1)c1nnc(C)n1-2 (stereo partly drawn) [Example 331, 2-[(9S)-7-(4-chlorophenyl)-4,5,13-trimethyl-3-thia-1,8,11,12-tetraazatricyclo[8.3.0.02,6]trideca-2(6),4,7,10,12-pentaen-9-yl]-N-[8-[[2-[6-(2,6-dioxopiperidin-3-yl)-5,7-dioxo-2,6-diazaspiro[3.4]octan-2-yl]acetyl]amino]octyl]acetamide]
≥ 100	O=C1NC(=O)[C@@]2(c3ccc(Br)cc3)CC[C@@H]1O2 (racemic) [Example 173, 1-(4-Bromophenyl)-8-oxa-3-azabicyclo [3.2.1]octane-2,4-dione]
50 to 100	Cn1nc(N2CCCC(=O)NC2=O)c2ccc(CCC(=O)OC(C)(C)C)cc21 [Example 291, tert-Butyl 3-[3-(2,4-dioxo-1,3-diazepan-1-yl)-1-methylindazol-6-yl]propanoate]
< 50	O=C1CCCC(n2nc(I)c3ccccc32)C(=O)N1 (stereo not drawn) [Example 135, 3-(3-Iodoindazol-1-yl)azepane-2,7-dione]
< 50	Cc1sc2c(c1C)C(c1ccc(Cl)cc1)=N[C@@H](CC(=O)NCCCCCCCCn1ccc3c(N4CC5(CC(=O)N(C6CCC(=O)NC6=O)C5=O)C4)ncnc31)c1nnc(C)n1-2 (stereo partly drawn) [Example 318, 2-[(9S)-7-(4-chlorophenyl)-4,5,13-trimethyl-3-thia-1,8,11,12-tetraazatricyclo[8.3.0.02,6]trideca-2(6),4,7,10,12-pentaen-9-yl]-N-[8-[4-[6-(2,6-dioxopiperidin-3-yl)-5,7-dioxo-2,6-diazaspiro[3.4]octan-2-yl]pyrrolo[2,3-d]pyrimidin-7-yl]octyl]acetamide]
50 to 100	Cn1c(C(=O)OC(C)(C)C)cc2c(N3CCC4(CCCC(=O)NC4=O)C3)ncnc21 (stereo not drawn) [Example 180, tert-Butyl 4-(6,8-dioxo-2,7-diazaspiro[4.6]undecan-2-yl)-7-methylpyrrolo[2,3-d]pyrimidine-6-carboxylate]
< 50	CN1C(=O)C(C)(N2C=CCC(=O)NC2=O)c2cccc(/C=C/C(=O)OC(C)(C)C)c21 (stereo not drawn) [Example 289, tert-Butyl (E)-3-[3-(2,4-dioxo-5H-1,3-diazepin-1-yl)-1,3-dimethyl-2-oxoindolin-7-yl]prop-2-enoate]
≥ 100	Cn1c(-c2ccc(CCC(=O)OC(C)(C)C)cc2)nn(C2CCCC(=O)NC2=O)c1=O (stereo not drawn) [Example 266, tert-Butyl 3-[4-[1-(2,7-dioxoazepan-3-yl)-4-methyl-5-oxo-1,2,4-triazol-3-yl]phenyl]propanoate]
